# pEC50: −log10 of the molar value.
# System: HBV
# Assay: Inhibition of HBV replication dot-blot assay in HBV-producing hepatoma cell line
# Format: cell-based
# Settings: Hepatitis B virus, 144 h; activity in Dot-Blot assay; HepG2-2.2.15 cells; reduction in HBV DNA levels, six days
# Method: Compounds active in the HBV assembly assay are tested for their activity and toxicity in cellular assay. In the first anti-viral assay, the ability of compounds to inhibit HBV replication in an HBV-producing hepatoma cell line using the dot-blot method is evaluated.
# (§1) Briefly, confluent monolayers of HepG2-2.2.15 cells are incubated with complete medium containing various concentrations of a test compound. Three days later, the culture medium is replaced with fresh medium containing the appropriately diluted test compound. Six days following the initial administration of the test compound, the cell culture supernatant is collected, and cell lysis is performed. The samples are applied onto Nylos membranes and DNA is immobilized to the membrane by UV cross-linking. After pre-hybridization, the HBV probe is added and the hybridization is performed overnight. The membranes are exposed to the KODAK films; antiviral activity is calculated from the reduction in HBV DNA levels (EC50). The EC50 for antiviral activity is calculated from the dose response curves of active compounds. Assay performance over time is monitored by the use of the standard positive control compounds ETV, BAY 41-4109, and HAP-1.
# Selected compounds are tested for their activity and toxicity in cellular assay. In the first anti-viral assay, the ability of compounds to inhibit HBV replication in an HBV-producing hepatoma cell line using the dot-blot method is evaluated.
# as §1, with “Confluent monolayers” for “Briefly, confluent monolayers”, “lysis was” for “lysis is”
row,Structure (SMILES),pEC50
1,"O=C(Nc1ccc(F)c(Cl)c1)c1ccnc(NS(=O)(=O)C2CCOC2)c1 (racemic) [Compound 161, (±)-N-(3-Chloro-4-fluorophenyl)-2-(tetrahydrofuran-3-sulfonamido)isonicotinamide]",> 5.00
2,"O=C(Nc1ccc(F)c(Cl)c1)c1cccc(NS(=O)(=O)C2CCOC2)c1 (racemic) [Compound 202, (±)-N-(3-chloro-4-fluorophenyl)-3-(tetrahydrofuran-3-sulfonamido)benzamide]",> 5.00
3,"O=C(Nc1ccc(F)c(Cl)c1)c1ccnc(NS(=O)(=O)Cc2ccccc2)c1 [Compound 139, N-(3-Chloro-4-fluorophenyl)-2-(phenylmethylsulfonamido)isonicotinamide]",> 5.00
4,"O=C(Nc1ccc(F)c(Cl)c1)c1ccc(F)c(SC2CCC(C(=O)O)CC2)c1 (mixture of isomers) [Compound 61, (cis/trans)-4-((5-((3-Chloro-4-fluorophenyl)carbamoyl)-2-fluorophenyl)thio)cyclohexanecarboxylic acid]",> 5.00
5,"O=C1CCC(Sc2cc(C(=O)Nc3ccc(F)c(Cl)c3)ccc2F)C1 (racemic) [Compound 22, (±)-N-(3-Chloro-4-fluorophenyl)-4-fluoro-3-((3-oxocyclopentyl)thio)benzamide]",> 5.00
6,"O=C(Nc1ccc(F)c(Cl)c1)c1ccnc(NS(=O)(=O)CC2(O)CCC2)c1 [Compound 155, N-(3-Chloro-4-fluorophenyl)-2-((1-hydroxycyclobutyl)methylsulfonamido) isonicotinamide]",> 5.00
7,"O=C(Nc1ccc(F)c(F)c1)c1ccc(Cl)c(SC2CCC(O)CC2)c1 (mixture of isomers) [Compound 87, (cis/trans)-4-Chloro-N-(3,4-difluorophenyl)-3-((4-hydroxycyclohexyl)thio)benzamide]",> 5.00
8,"CC(C)S(=O)(=O)Nc1cc(C(=O)Nc2ccc(F)c(F)c2)ccn1 [Compound 165, N-(3,4-Difluorophenyl)-2-(1-methylethylsulfonamido)isonicotinamide]",> 5.00
9,"COc1ccc(C(=O)Nc2ccc(F)c(Cl)c2)cc1SC1CCCCC1 [Compound 69, N-(3-Chloro-4-fluorophenyl)-3-(cyclohexylthio)-4-methoxybenzamide]",> 5.00
10,"O=C(Nc1ccc(F)c(Cl)c1)c1ccnc(NS(=O)(=O)C2CCCOC2)c1 (racemic) [Compound 179, (±)-N-(3-Chloro-4-fluorophenyl)-2-(tetrahydro-2H-pyran-3-sulfonamido)isonicotinamide]",> 5.00
11,"O=C(Nc1cc(F)c(F)c(F)c1)c1ccc(F)c(S[C@H]2CCCC[C@@H](O)C2)c1 (racemic) [Compound 14A, (±)-4-Fluoro-3-(((1S,3R)-3-hydroxycycloheptyl)thio)-N-(3,4,5-trifluorophenyl)benzamide]",> 5.00
12,"O=C(Nc1ccc(F)c(F)c1)c1ccnc(NS(=O)(=O)C2CC2)c1 [Compound 128, 2-(Cyclopropanesulfonamido)-N-(3,4-difluorophenyl)isonicotinamide]",> 5.00
13,"O=C(Nc1cc(F)c(F)c(F)c1)c1ccc(F)c(SC2CCC(C(=O)N3CCNCC3)CC2)c1 (mixture of isomers) [Compound 108, (cis/trans)-4-Fluoro-3-((4-(piperazine-1-carbonyl)cyclohexyl)thio)-N-(3,4,5-trifluorophenyl)benzamide]",> 5.00
14,"CC(C)(O)CCSc1cc(C(=O)Nc2cc(F)c(F)c(F)c2)ccc1F [Compound 19, 4-Fluoro-3-((3-hydroxy-3-methylbutyl)thio)-N-(3,4,5-trifluorophenyl)benzamide]",> 5.00
15,"CN(C)C(=O)C1CCC(Sc2cc(C(=O)Nc3cc(F)c(F)c(F)c3)ccc2F)CC1 (mixture of isomers) [Compound 103, (cis/trans)-3-((4-(Dimethylcarbamoyl)cyclohexyl)thio)-4-fluoro-N-(3,4,5-trifluorophenyl)benzamide]",> 5.00
16,"COc1ccc(C(=O)Nc2cc(F)c(F)c(F)c2)cc1SC1CCC(O)CC1 (mixture of isomers) [Compound 84, (cis/trans)-3-((4-Hydroxycyclohexyl)thio)-4-methoxy-N-(3,4,5-trifluorophenyl)benzamide]",> 5.00
17,"O=C(Nc1cc(F)c(F)c(F)c1)c1c[nH]c(=O)c(SC2CCCC2)c1 [Compound 48, 5-(Cyclopentylthio)-6-oxo-N-(3,4,5-trifluorophenyl)-1,6-dihydropyridine-3-carboxamide]",> 5.00
18,"O=C(Nc1cc(F)c(F)c(F)c1)c1ccc(F)c(SCCCO)c1 [Compound 17, 4-Fluoro-3-((3-hydroxypropyl)thio)-N-(3,4,5-trifluorophenyl)benzamide]",> 5.00
19,"O=C(Nc1ccc(F)c(Cl)c1)c1ccc(F)c(SCC2CCC(C(=O)O)CC2)c1 (mixture of isomers) [Compound 109, (cis/trans)-4-(((5-((3-Chloro-4-fluorophenyl)carbamoyl)-2-fluorophenyl)thio)methyl)cyclohexanecarboxylic acid]",> 5.00
20,"CC(C)(C)Sc1cc(C(=O)Nc2cc(F)c(F)c(F)c2)ccc1F [Compound 5, 3-(tert-Butylthio)-4-fluoro-N-(3,4,5-trifluorophenyl)benzamide]",> 5.00
21,"COc1ccc(C(=O)Nc2ccc(F)c(F)c2)cc1SC1CCCCC1 [Compound 80, 3-(Cyclohexylthio)-N-(3,4-difluorophenyl)-4-methoxybenzamide]",> 5.00
22,"O=C(Nc1ccc(F)c(Cl)c1)c1cc(NS(=O)(=O)C2CC2)ncc1Cl [Compound 149, 5-Chloro-N-(3-chloro-4-fluorophenyl)-2-(cyclopropanesulfonamido)isonicotinamide]",> 5.00
23,"O=C(Nc1cc(F)c(F)c(F)c1)c1ccc(Cl)c(SC2CCC(O)CC2)c1 (mixture of isomers) [Compound 81, (cis/trans)-4-Chloro-3-((4-hydroxycyclohexyl)thio)-N-(3,4,5-trifluorophenyl)benzamide]",> 5.00
24,"O=C(O)CC1CCC(Sc2cc(C(=O)Nc3ccc(F)c(F)c3)ccc2F)C1 (racemic) [Compound 105, (±)-2-(3-((5-((3,4-Difluorophenyl)carbamoyl)-2-fluorophenyl)thio)cyclopentyl)acetic acid]",> 5.00
25,"Cc1n[nH]c(C)c1S(=O)(=O)Nc1cccc(C(=O)Nc2ccc(F)c(Cl)c2)c1 [Compound 201, N-(3-chloro-4-fluorophenyl)-3-(3,5-dimethyl-1H-pyrazole-4-sulfonamido)benzamide]",> 5.00
26,"O=C(Nc1cc(F)c(F)c(F)c1)c1ccc(F)c(SC2CCCC2)c1 [Compound 3, 3-(Cyclopentylthio)-4-fluoro-N-(3,4,5-trifluorophenyl)benzamide]",> 5.00
27,"CC(C)(Sc1cc(C(=O)Nc2ccc(F)c(Cl)c2)ccc1F)C(=O)O [Compound 51, 2-((5-((3-Chloro-4-fluorophenyl)carbamoyl)-2-fluorophenyl)thio)-2-methylpropanoic acid]",> 5.00
28,"CC1(S(=O)(=O)Nc2cc(C(=O)Nc3ccc(F)c(Cl)c3)ccn2)CC1 [Compound 130, N-(3-Chloro-4-fluorophenyl)-2-(1-methylcyclopropanesulfonamido)isonicotinamide]",> 5.00
29,"O=C(Nc1ccc(F)c(Cl)c1)c1ccc(F)c(SCC2COC2)c1 [Compound 60, N-(3-Chloro-4-fluorophenyl)-4-fluoro-3-((oxetan-3-ylmethyl)thio)benzamide]",> 5.00

# — patent publication EP3227262B1, “SULFIDE ALKYL AND PYRIDYL REVERSE SULFONAMIDE COMPOUNDS FOR HBV TREATMENT” (Novira Therapeutics Inc., priority 2014, dated 2016)
